These results are taken from US7531506B2, “Process for producing trunkamide a compounds” (Pharma Mar, S.A., priority 2001, dated 2009).

Holding throughout (type): cell-based
The test system of test [1] is MEL-28 human melanoma. The experiment in a line: Cytotoxicity, MEL28 cells. To be noted: MEL-28 human melanoma cells; read-out: Cytoxicity IC50 MEL28. From the text:
(§1) Cytoxicity of trunkamide A and derivatives IC50 (molar).
(§2) Methodology: after Berjeron et al, Biochem and Bioph Res. Comm., 1984, 121, 3,848854 388=Murine lymphoma. A549=lung carcinoma. . HT-29=human colon carcinoma MEL-28=human melanoma. DU145=human prostate carcinoma.

The test system of test [2] is DU145 human prostate carcinoma. Nature of the test: Cytotoxicity, DU145 cells. To be noted: read-out: Cytoxicity IC50 DU145.
From the text: as §1, §2

The subject of test [3] is HT-29 human colon carcinoma. Nature of the test: Cytotoxicity, HT29 cells. To be noted: HT-29 human colon carcinoma cells; read-out: Cytoxicity IC50 HT29.
From the text: as §1, §2

Test [4] has as its system A549 human lung carcinoma. The experiment in a line: Cytotoxicity, A549 cells. To be noted: read-out: Cytoxicity IC50 A549.
From the text: as §1, §2

Test [5] deals with P388 murine lymphoma. The experiment in a line: Cytotoxicity, P388 cells. Particulars: read-out: Cytoxicity IC50 P388.
From the text: as §1, §2

*1 amine or outer side, *2 acyl side, *3 side chain or, on linkers, in order; H or OH if unused. Where a SMILES comes first, the peptide text is derived from it. [ ]: non-standard residue; d: D form. The star is where a group is joined. X1 = O=C([C@@H]1CSC([C@@H](Cc2ccccc2)N[*:1])=N1)[*:2]; X2 = C=CC(C)(C)O[C@H](C)C(N[*:1])C(=O)[*:2]; Allyl(1,1-Me2) = C=CC(C)(C)*

Consider `C=CC(C)(C)OC[C@@H]1NC(=O)C([C@@H](C)OC(C)(C)C=C)NC(=O)[C@@H]2CSC(=N2)[C@@H](Cc2ccccc2)NC(=O)[C@@H]2CCCN2C(=O)[C@H](C)NC(=O)[C@H]([C@@H](C)CC)NC1=O` (stereo partly drawn) [Compound 9, Cyclo[D-Phe-Tzn-Thr(rPr)-Ser(rPr)-Ile-Ala-Pro]] (cyclo(AP[X1][X2]S(Allyl(1,1-Me2))I)), for which the IC50 in test [1] was 12000 nM; in test [2], 1200 nM; in test [3], 1200 nM; in test [4], 1200 nM; in test [5] it was 1200 nM.
With “Cyclo [Compound 10, Cyclo [L-Phe-Tzn-Thr(rPr)-Ser(rPr)-Ile-Ala-Pro]]”, the IC50 in test [1], in test [2], in test [3], in test [4] and in test [5] was 1200 nM throughout.
In the case of “Cyclo [Compound 11, Cyclo [L-Phe-Tzn-Thr (tBu)-Ser(tBu)-Ile-Ala-Pro]]”, the half-maximal inhibitory concentration (IC50) in test [1], in test [2], in test [3], in test [4] and in test [5] was above 6200 nM in each case.
Turning to “Cyclo [Compound 12, Cyclo [L-Phe-Oxa-Thr(tBu)-Ser(tBu)-Ile-Ala-Pro]]”, the concentration for half-maximal inhibition (IC50) in test [1] is above 6100 nM; in test [2], above 6100 nM; in test [3] it was 3100 nM; in test [4], 3100 nM; in test [5], 3100 nM.
